Test results taken from article PMC9154192 (PLoS Biology, 2022).
Like-named read-outs stand apart in the source and are kept apart here.

Columns and labels:
M. heraklionease = test: microbe, parasite or virus in culture; assay type: cell-based; conditions: Mycobacterium
M. bovis = test: microbe, parasite or virus in culture; assay type: cell-based; conditions: Mycobacterium tuberculosis variant bovis
M. tuberculosis H37Rv = test: microbe, parasite or virus in culture; assay type: cell-based, Mycobacterium tuberculosis; conditions: Mycobacterium tuberculosis, H37RV; read-out: MIC
M. goodie = test: microbe, parasite or virus in culture; assay type: cell-based; conditions: Mycobacterium
M. fortuitum = test: microbe, parasite or virus in culture; assay type: cell-based, Mycobacterium fortuitum; conditions: Mycolicibacterium fortuitum
Rhizopus oryzae = test: Broth dilution MIC (CLSI); assay type: cell-based; conditions: Rhizopus arrhizus
Description: (§1) Bacteria (Acinetobacter baumannii NCCP 14782, Citrobacter freundii NCCP 14766, Enterobacter aerogenes NCCP 14761, Escherichia coli NCCP 14762, Escherichia coli O157 NCCP 14541, Klebsiella pneumoniae NCCP 14764, Proteus mirabilis NCCP 14763, Proteus vulgaris NCCP 14765, Pseudomonas aeruginosa NCCP 14781, Salmonella Enteritidis NCCP 14771, Salmonella Paratyphi A NCCP 14759, Salmonella Typhimurium NCCP 16207, Serratia marcescens NCCP 14770, Shigella boydii NCCP 14745, Shigella dysenteriae NCCP 14746, Shigella flexneri NCCP 14744, Shigella sonnei NCCP 14773, Bacillus subtilis NCCP 11101, Corynebacterium diphtheriae NCCP 10353, Staphylococcus aureus MSSA NCCP 14780, Staphylococcus aureus MRSA NCCP 14769, Staphylococcus epidermidis NCCP 14768, Streptococcus pneumoniae NCCP 14774) and fungi (Aspergillus fumigatus NCCP 22454, Candida albicans NCCP 32557, Cryptococcus neoformans NCCP 32559, Microsporum canis NCCP 22454, Rhizopus oryzae NCCP 22458, Saccharomyces cerevisiae NCCP 32558, Trichophyton rubrum NCCP 22456) strains were obtained from the National Culture Collection for Pathogens (NCCP) (Chungbuk, Korea). The MIC of each agent was determined following the Clinical and Laboratory Standards Institute (CLSI).[40]

Shigella boydii = test: Broth dilution MIC (CLSI); assay type: cell-based
Description: as §1

Aspergillus fumigatus = test: Broth dilution MIC (CLSI); assay type: cell-based
Description: as §1

Shigella dysenteriae = test: Broth dilution MIC (CLSI); assay type: cell-based
Description: as §1

Citrobacter freundii = test: Broth dilution MIC (CLSI); assay type: cell-based
Description: as §1

Trichophyton rubrum = test: Broth dilution MIC (CLSI); assay type: cell-based
Description: as §1

Salmonella Enteritidis = test: Broth dilution MIC (CLSI); assay type: cell-based; conditions: Salmonella enterica
Description: as §1

Serratia marcescens = test: Broth dilution MIC (CLSI); assay type: cell-based
Description: as §1

Acinetobacter baumannii = test: Broth dilution MIC (CLSI); assay type: cell-based
Description: as §1

[1] = test system: Staphylococcus aureus, MRSA; test: Broth dilution MIC (CLSI); assay type: cell-based
Description: as §1

Enterobacter aerogenes = test: Broth dilution MIC (CLSI); assay type: cell-based; conditions: Klebsiella aerogenes
Description: as §1

[2] = test system: Staphylococcus aureus, MSSA; test: Broth dilution MIC (CLSI); assay type: cell-based
Description: as §1

Klebsiella pneumoniae = test: Broth dilution MIC (CLSI); assay type: cell-based
Description: as §1

Escherichia coli O157 = test: Broth dilution MIC (CLSI); assay type: cell-based
Description: as §1

Proteus vulgaris = test: Broth dilution MIC (CLSI); assay type: cell-based
Description: as §1

Candida albicans = test: Broth dilution MIC (CLSI); assay type: cell-based
Description: as §1

Escherichia coli = test: Broth dilution MIC (CLSI); assay type: cell-based
Description: as §1

Salmonella Paratyphi A = test: Broth dilution MIC (CLSI); assay type: cell-based; conditions: Salmonella enterica
Description: as §1

Microsporum canis = test: Broth dilution MIC (CLSI); assay type: cell-based
Description: as §1

Proteus mirabilis = test: Broth dilution MIC (CLSI); assay type: cell-based
Description: as §1

Bacillus subtilis = test: Broth dilution MIC (CLSI); assay type: cell-based
Description: as §1

[3] = test system: Corynebacterium diphtheriae; test: Broth dilution MIC (CLSI); assay type: cell-based
Description: as §1

Streptococcus pneumoniae = test: Broth dilution MIC (CLSI); assay type: cell-based
Description: as §1

Cryptococcus neoformans = test: Broth dilution MIC (CLSI); assay type: cell-based
Description: as §1

Shigella flexneri = test: Broth dilution MIC (CLSI); assay type: cell-based
Description: as §1

[4] = test system: Staphylococcus epidermidis; test: Broth dilution MIC (CLSI); assay type: cell-based
Description: as §1

Saccharomyces cerevisiae = test: Broth dilution MIC (CLSI); assay type: cell-based
Description: as §1

Salmonella Typhimurium = test: Broth dilution MIC (CLSI); assay type: cell-based; conditions: Salmonella enterica
Description: as §1

Shigella sonnei = test: Broth dilution MIC (CLSI); assay type: cell-based
Description: as §1

Pseudomonas aeruginosa = test: Broth dilution MIC (CLSI); assay type: cell-based
Description: as §1

M. kansasii = test: microbe, parasite or virus in culture; assay type: cell-based; conditions: Mycobacterium kansasii
M. bolletii = test: microbe, parasite or virus in culture; assay type: cell-based, Mycobacterium bolletii; conditions: Mycobacteroides abscessus
M. avium = test: microbe, parasite or virus in culture; assay type: cell-based; conditions: Mycobacterium avium
M. massiliense = test: microbe, parasite or virus in culture; assay type: cell-based, Mycobacterium massiliense; conditions: Mycobacteroides abscessus
M. phocaicum = test: microbe, parasite or virus in culture; assay type: cell-based, Mycobacterium phocaicum; conditions: Mycolicibacterium phocaicum
[5] = test system: clinically isolated MDR, XDR, and TDR M. tuberculosis strains; test: microbe, parasite or virus in culture; assay type: cell-based; conditions: Mycobacterium tuberculosis
M. gordonae = test: microbe, parasite or virus in culture; assay type: cell-based; conditions: Mycobacterium gordonae
M. chitae = test: microbe, parasite or virus in culture; assay type: cell-based, Mycobacterium chitae; conditions: Mycolicibacterium chitae

Measured: MIC

CO[C@H]1/C=C/O[C@@]2(C)Oc3c(C)c(O)c4c(O)c(c(/C=N/N5CCN(C)CC5)c(O)c4c3C2=O)NC(=O)/C(C)=C\C=C\[C@H](C)[C@H](O)[C@@H](C)[C@@H](O)[C@@H](C)[C@H](OC(C)=O)[C@@H]1C [RIF, rifampicin, reference compound]
1.6 µg/mL: Shigella dysenteriae | M. avium
0.05 µg/mL: [1] | [2] | [3] | Streptococcus pneumoniae | [4]
1.5 µg/mL: Shigella flexneri
0.4 µg/mL: Shigella boydii
6.3 µg/mL: Enterobacter aerogenes | Klebsiella pneumoniae | Proteus vulgaris | Escherichia coli | M. chitae
12.5 µg/mL: Salmonella Enteritidis; ENTERITIDIS | Serratia marcescens | Salmonella Paratyphi A; PARATYPHI | Salmonella Typhimurium; TYPHIMURIUM
0.1 µg/mL: M. bovis | M. tuberculosis H37Rv
3.1 µg/mL: Acinetobacter baumannii | Escherichia coli O157 | Proteus mirabilis | Shigella sonnei | M. gordonae
25 µg/mL: Citrobacter freundii | Pseudomonas aeruginosa | M. phocaicum
100 µg/mL: M. goodie
0.2 µg/mL: M. heraklionease | M. fortuitum | M. massiliense
< 0.1 µg/mL: Bacillus subtilis | M. kansasii
> 100 µg/mL: Rhizopus oryzae | Aspergillus fumigatus | Trichophyton rubrum | Candida albicans | Microsporum canis | Cryptococcus neoformans | Saccharomyces cerevisiae | M. bolletii | [5]; TDR-1 | [5]; TDR-2 | [5]; TDR-3

[H]/N=C(/N)N[C@H]1[C@H](O)[C@@H](O)[C@H](O[C@@H]2O[C@@H](C)[C@](O)(C=O)[C@H]2O[C@@H]2O[C@@H](CO)[C@H](O)[C@@H](O)[C@@H]2NC)[C@@H](N/C(N)=N\[H])[C@@H]1O [STR, streptomycin]
100 µg/mL: M. gordonae
12.5 µg/mL: Streptococcus pneumoniae; read-out: MIC
50 µg/mL: M. heraklionease | Serratia marcescens; read-out: MIC | [5]; TDR-1 | [5]; TDR-3
6.3 µg/mL: M. fortuitum | Acinetobacter baumannii; read-out: MIC | [2]; read-out: MIC | Escherichia coli O157; read-out: MIC | Salmonella Paratyphi A; Salmonella Paratyphi A, read-out: MIC | Proteus mirabilis; read-out: MIC | M. phocaicum
1.6 µg/mL: Citrobacter freundii; read-out: MIC | [4]; read-out: MIC
3.1 µg/mL: Salmonella Enteritidis; Salmonella Enteritidis, read-out: MIC | [1]; read-out: MIC | Enterobacter aerogenes; Enterobacter aerogenes, read-out: MIC | Klebsiella pneumoniae; read-out: MIC | [3]; read-out: MIC | Shigella sonnei; read-out: MIC | M. avium
0.8 µg/mL: Bacillus subtilis; read-out: MIC | M. massiliense
> 100 µg/mL: Rhizopus oryzae; Rhizopus oryzae, read-out: MIC | Aspergillus fumigatus; read-out: MIC | Trichophyton rubrum; read-out: MIC | Candida albicans; read-out: MIC | Microsporum canis; read-out: MIC | Cryptococcus neoformans; read-out: MIC | Saccharomyces cerevisiae; read-out: MIC | [5]; TDR-2 | M. chitae
0.4 µg/mL: M. bovis | M. tuberculosis H37Rv
25 µg/mL: Shigella boydii; read-out: MIC | Shigella dysenteriae; read-out: MIC | Proteus vulgaris; read-out: MIC | Escherichia coli; read-out: MIC | Shigella flexneri; read-out: MIC | Salmonella Typhimurium; Salmonella Typhimurium, read-out: MIC | Pseudomonas aeruginosa; read-out: MIC | M. bolletii
0.2 µg/mL: M. goodie | M. kansasii
